Source: patent US20040047829A1, “Fluids for sanitizing the teats of dairy animals” (priority 2002, published 2004)

Assay: Stability of ADBAC solutions
Format: physicochemical
Excerpt: The principal antibacterial ingredient in these formulations is alkyl dimethyl benzyl ammonium chloride (ADBAC). ADBAC is effective in killing the bacteria associated with mastitis in milking animals, and is not an oxidant. It also has a slight detergent action and so assists in cleaning dirt off of the animal's teats. […] It is inexpensive and is obtained commercially in a convenient dry form under the trade name TIMSEN. In TIMSEN, urea is used as a carrier and a buffer in a weight ratio of about three parts urea to two parts ADBAC by weight. Urea will be in the sanitizing fluid when TIMSEN is used as the stock source for ADBAC, however, it will be understood that urea is not an active ingredient in these formulations.

Q: With “alkyl dimethyl benzyl ammonium chloride [ADBAC]” as the substance, how does the stability of solutions read?
A: stable for over a year
